{
  "source": "ChEMBL document CHEMBL5365398",
  "about": "“Structure-activity relationship study of central pyridine-derived TYK2 JH2 inhibitors: Optimization of the PK profile through C4' and C6 variations” (Bioorg Med Chem Lett, 2023)",
  "key": {"in vitro [1]": {"assay": "in vitro", "details": "human, liver microsomes"}, "in vitro [2]": {"assay": "in vitro", "details": "rat, liver microsomes"}, "in vitro [3]": {"assay": "in vitro", "details": "mouse, liver microsomes"}, "in vitro [4]": {"assay": "in vitro", "details": "human, Caco-2"}, "in vivo [5]": {"assay": "in vivo", "details": "mouse, po, 10 mg/kg"}, "in vivo [6]": {"assay": "in vivo", "details": "mouse, po, 10 mg/kg", "remark": "listed apart in the source"}, "in vivo [7]": {"assay": "in vivo", "details": "mouse, po, 10 mg/kg", "remark": "listed apart in the source"}, "in vitro [8]": {"assay": "in vitro", "details": "human, liver microsomes", "remark": "listed apart in the source"}, "in vitro [9]": {"assay": "in vitro", "details": "mouse, liver microsomes", "remark": "listed apart in the source"}, "in vitro [10]": {"assay": "in vitro", "details": "rat, liver microsomes", "remark": "listed apart in the source"}},
  "data": [
    {"smiles": "[2H]C([2H])([2H])NC(=O)c1nnc(Nc2cccc(OC)n2)cc1Nc1nccc(-c2ncn(C)n2)c1OC", "values": [
      {"measurement": "remaining at 10 min, 0.5 µM", "setting": "in vitro [1]", "value": 88, "unit": "%"},
      {"measurement": "remaining at 10 min, 0.5 µM", "setting": "in vitro [2]", "value": 71, "unit": "%"},
      {"measurement": "remaining at 10 min, 0.5 µM", "setting": "in vitro [3]", "value": 65, "unit": "%"}
    ]},
    {"smiles": "[2H]C([2H])([2H])NC(=O)c1nnc(NC(=O)C2CC2)cc1Nc1nccc(-c2ncc(F)cn2)c1OC", "values": [
      {"measurement": "remaining at 10 min, 0.5 µM", "setting": "in vitro [1]", "value": 89, "unit": "%"},
      {"measurement": "remaining at 10 min, 0.5 µM", "setting": "in vitro [2]", "value": 100, "unit": "%"},
      {"measurement": "remaining at 10 min, 0.5 µM", "setting": "in vitro [3]", "value": 100, "unit": "%"},
      {"measurement": "Papp A→B", "setting": "in vitro [4]", "value": 34.5, "unit": "×10⁻⁶ cm/s"}
    ]},
    {"smiles": "[2H]C([2H])([2H])NC(=O)c1nnc(Nc2ccc(C(C)(C)O)cn2)cc1Nc1nccc(-c2ncc(F)cn2)c1OC", "values": [
      {"measurement": "Cmax", "setting": "in vivo [5]", "value": 15.2, "unit": "µM"},
      {"measurement": "AUC(0-t)", "setting": "in vivo [6]", "value": 34.2, "unit": "µM·h"},
      {"measurement": "bioavailability", "setting": "in vivo [7]", "value": 94, "unit": "%"},
      {"measurement": "remaining at 10 min, 0.5 µM", "setting": "in vitro [1]", "value": 100, "unit": "%"},
      {"measurement": "remaining at 10 min, 0.5 µM", "setting": "in vitro [2]", "value": 100, "unit": "%"},
      {"measurement": "remaining at 10 min, 0.5 µM", "setting": "in vitro [3]", "value": 83, "unit": "%"},
      {"measurement": "half-life", "setting": "in vitro [8]", "value": "> 2", "unit": "h"},
      {"measurement": "half-life", "setting": "in vitro [9]", "value": "> 2", "unit": "h"},
      {"measurement": "Papp A→B", "setting": "in vitro [4]", "value": 9.7, "unit": "×10⁻⁶ cm/s"},
      {"measurement": "half-life", "setting": "in vitro [10]", "value": "> 2", "unit": "h"}
    ]}
  ]
}
